Measured values reported in US9282738B2, “Antimicrobial compositions and methods of use thereof” (WISCONSIN ALUMNI RESEARCH FOUNDATION, priority 2011, dated 2016).
Converted amounts (≈) assume the structure as drawn.

Legend:
[1] = test system: C. crescentus (strain CB15N); assay: Minimum inhibitory concentration (macrodilution), C. crescentus CB15N; type: cell-based; details: Caulobacter vibrioides
Procedure: (§1) All cultures were grown for 17 hrs.
Minimum inhibitory concentration for compounds 1, 6, 7, 8, and 9, determined as in Example 3 using the C. crescentus CB15N strain.

Vibrio cholerae = assay: Minimum inhibitory concentration, pathogenic strain Vibrio cholerae; type: cell-based
Shigella boydii = assay: Minimum inhibitory concentration, pathogenic strain Shigella boydii; type: cell-based
Procedure: as §1

Acinetobacter baumannii = assay: Minimum inhibitory concentration, pathogenic strain Acinetobacter baumannii; type: cell-based
Procedure: as §1

[2] = test system: C. crescentus strain (MT97) that expresses mipZ-yfp; assay: In vivo screen of cell morphology (septation) by microscopy, C. crescentus; type: cell-based, Caulobacter crescentus; details: 20 μM in agarose pad, FIG. 3
Procedure: In vivo screen with a Caulobacter crecentus strain that expresses MipZ-YFP: Hits from the in vitro screens were tested for their activity in vivo. A C. crescentus strain (MT97) that expresses mipZ-yfp from the native mipZ promoter was used. An overnight culture of MT97 was diluted to an OD600 of ˜0.1, and the diluted culture was further grown for at least an hour prior to treatment with the compound. Compounds were mixed with a solution of 1% agarose in M2G medium to achieve a final concentration of 20 μM. Cells were inoculated onto the surface of the compound-containing agarose pad (1 μL inoculum per pad), and we observed the cell morphology and localization of MipZ-YFP for a period of 24 hrs. In the time between microscopic observations, the inoculated pads were kept at 30° C. to promote growth.

Escherichia coli = assay: Septation during reproduction, E. coli (FIG. 3); type: cell-based
[3] = test system: C. crescentus CB15N pMT182 (PxylX-mipZ); assay: Cell length microscopy with MipZ overexpression; type: cell-based, Caulobacter crescentus; details: 0.2% xylose induction, FIG. 4
Procedure: (§2) Optical microscopy and image analysis: A Nikon Eclipse TE2000E inverted microscope with a Perfect Focus system and an encoded z-stage for phase contrast and epifluorescence microscopy was used. To observe the effect of Compound 1 on cell division, freshly grown cells from an overnight culture were treated with the compound. Small aliquots (1-2 μL) of the cells dosed with Compound 1 were mounted on 1% agarose pads for microscopy. To visualize FtsZ localization, MT196 cells (C. crescentus CB15N PvanA-ftsZ-yfp) were induced with vanilate (0.5 mM) for 1 hr prior to imaging. PSICIC, a MATLAB-based script, was used to measure cell lengths (n≧100) for the following strains of C. crescentus: CB15N, CB15N pMT182 (PxylX-mipZ, Cm^R), and CB15N ΔzapA. The CB15N pMT182 strain was treated with 0.2% xylose to induce overexpression of MipZ. For cells that could not be accurately detected by PSICIC, the cell length was manually traced in MetaMorph or ImageJ and the pixel traces were converted to microns. GraphPad InStat was used for statistical analysis of cell length distributions.

[4] = test system: C. crescentus CB15N ΔzapA; assay: Cell length microscopy in ΔzapA strain; type: cell-based, Caulobacter crescentus; details: FIGS. 5 and 6
Procedure: as §2

C. crescentus CB15N = assay: Viability of C. crescentus after exposure to antibiotics (colony counts); type: cell-based, Caulobacter crescentus; details: antibiotic at twice its MIC, FIG. 7
Procedure: Kanamycin was used as a control since it is a known bacteriocidal agent. An overnight culture of [MUT] in PYE medium was diluted to an optical density of 0.1 (λ=600 nm) and incubated further for 1.5 hrs. After the incubation, the culture was aliquoted into 15 mL conical tubes (1 mL of culture per aliquot) and treated with antibiotics. The final concentration of the antibiotics was twice its minimum inhibitory concentration. Upon addition of antibiotics, the culture tubes were wrapped with aluminum foil and shaken at 250 rpm at 30° C. At every 30 min, 100 μL was withdrawn from each aliquot and serially diluted five times in [MUT] medium. 100 μL of the fifth dilution was spread on PYE plates, the plates were incubated for two days at 30° C., and the number of colonies formed on the plates was counted.

[5] = test system: FtsB, FtsL, FtsK and FtsI localization in C. crescentus cells; assay: Localization of fluorescently-tagged Fts proteins; type: cell-based, Caulobacter crescentus; details: late division stage cells vs DMSO control, FIG. 8C
Procedure: Strains of C. crescentus that express fluorescently-tagged Fts proteins (FtsB, FtsL, FtsK, and FtsI) were cultured overnight. The overnight cultures were diluted 10-fold and incubated for an hour at 30° C. prior to compound treatment. Cells were induced with xylose (0.3%) to trigger the expression of fluorescently-tagged Fts proteins. After inducing with xylose for 45 min, cells were mounted on agarose pads and imaged as described in Example 4.
To analyze changes in the localization of Fts proteins, cells in the late division stage were selected for image analysis. At this stage of the cell cycle, cells have a visible constriction at the midcell, and the Fts proteins localize to the constriction site. […] Within the population of cells selected for a visible constriction, cells that have a single fluorescence focus of Fts proteins were counted. […] These cells have clear constrictions at the midcell as shown in brightfield images. In the fluorescence channel, the signal from Venus-FtsI is localized at the septum in the DMSO sample. In contrast, the fluorescence signal is more diffuse throughout the cell body in the sample treated with compound 1. […] The observed decrease in Fts protein localization in the presence of compound 1 was statistically significant when compared to the DMSO solvent control samples.

E. coli ΔtolC [6] = assay: Cephalexin-induced cell lysis and filamentation (optical density); type: cell-based, Escherichia coli; details: 10 μg/mL cephalexin plus compound 1 (0 to 12.5 μM), FIG. 9C
[7] = test system: C. crescentus CB15N cells; assay: Reversibility of cell division inhibition after wash-out; type: cell-based, Caulobacter crescentus; details: pre-incubated with 6 μM for 2.5 hours, then diffused out on agarose pad, FIG. 10
Procedure: To test whether the inhibitory effect of compound 1 is reversible, the compound was washed out of pre-treated cells and their growth and division monitored using microscopy. A culture of C. crescentus CB15N cells was pre-incubated with 6 μM compound 1 for 2.5 hours at 30° C. A small aliquot of this culture was applied to an agarose pad (2% w/v agarose in PYE media), and the cells were imaged over time while incubating them on the microscope stage at 30° C.

E. coli ΔtolC [8] = assay: Minimum inhibitory concentration (macrodilution), E. coli ΔtolC; details: Escherichia coli
Procedure: Determination of the minimum inhibitory concentration (MIC): The MIC of the small molecule hits was determined using a macrodilution method. All cultures were grown in M8 medium at 37° C., except for C. crescentus (strain CB15N) which was cultured in PYE media at 30° C. C. crescentus and E. coli cultures were incubated while shaking at 200 rpm. Pathogenic clinical strains were grown in static conditions. All cultures were grown for 17 hrs.

E. coli = details: reported in the literature; cited from earlier work
[9] = test system: MRSA strain of Staphylococcus aureus; details: normally lethal dose of MRSA; cited from earlier work
[10] = C. crescentus CB15N strain, determined as in Example 3

## Cc1nc2ccccc2n1CCC(=O)N/N=C/c1c(O)ccc2ccccc12 [Compound 1]
[1]; C. crescentus
  MIC: 5 µM (≈ 1.86 µg/mL)
[1]; [10]
  MIC: 5 µM (≈ 1.86 µg/mL)
Vibrio cholerae
  MIC: 0.4 µM (≈ 0.149 µg/mL)
Shigella boydii
  MIC: 50 µM (≈ 18.6 µg/mL)
Acinetobacter baumannii
  MIC: 25 µM (≈ 9.31 µg/mL)
[2]
  effect on septation / cell morphology: inhibits septation during reproduction in C. crescentus
Escherichia coli
  effect on septation: inhibits septation during reproduction
[3]
  effect on cell elongation caused by MipZ overexpression: rescues cell elongation caused by MipZ overexpression
[4]
  effect on cell length in ΔzapA strain: restores cell lengths to near normal lengths
C. crescentus CB15N
  colony forming units over time: did not significantly alter the colony forming units over time
[5]
  population of cells with midcell localization of Fts proteins: decreased the population of cells with a midcell localization of Fts proteins
E. coli ΔtolC [6]
  cell filamentation and lysis on co-treatment with cephalexin: elongated slowly and did not undergo cell lysis
[7]
  reversibility of inhibitory effect on cell division: reversible
E. coli ΔtolC [8]
  MIC: 13.5 µM (≈ 5.03 µg/mL)

## O=C(CCn1c(C(F)(F)F)nc2ccccc21)N/N=C/c1c(O)ccc2ccccc12 [Compound 6]
[1]; [10]
  MIC: 7.5 µM (≈ 3.2 µg/mL)

## COc1ccc2ccccc2c1/C=N/NC(=O)CCn1c(C(F)(F)F)nc2ccccc21 [Compound 7]
[1]; [10]
  MIC: > 20 µM

## COc1ccc2ccccc2c1/C=N/NC(=O)CCn1c(C)nc2ccccc21 [Compound 8]
[1]; [10]
  MIC: > 20 µM

## Cc1nc2ccccc2n1CCC(=O)N/N=C/c1ccccc1O [Compound 9]
[1]; [10]
  MIC: 15 µM (≈ 4.84 µg/mL)

## NC(=O)c1c(F)ccc(OCc2nc3cc(Cl)cnc3s2)c1F [PC190723]
E. coli
  MIC: > 180 µM
[9]
  protection of mice from lethal infection: protect mice from a normally lethal dose of the MRSA strain of Staphylococcus aureus
